Literature values, collected in US20250049733A1, “PHARMACEUTICAL COMPOSITION FOR THE TREATMENT OF INFECTIOUS RESPIRATORY DISEASES CAUSED BY INFLUENZA AND SARS-COV-2, AMONG OTHERS” (ALPARIS, S.A. DE C.V., priority 2021, published 2025).
Values after ≈ are worked out from the molar mass of the structure shown.

How the values were obtained:
[1] = test system: Respiratory Syncytal Virus (RSV)
[2] = test system: tumor necrosis factor-alpha (TNF-α) and interleukin-6 (IL-6); settings: randomized controlled trials
rheumatoid arthritis = settings: 8 weeks of treatment with 1 g of curcumin daily; meta-analysis
[3] = in vivo

In the case of `COc1cc(/C=C/C(=O)CC(=O)/C=C/c2ccc(O)c(OC)c2)ccc1O` [curcumin, (1E,6E)-1,7-bis(4-hydroxy-3-methoxyphenyl)-1,6-heptadiene-3,5-dione], the “IC50, antiviral action against SARS-CoV2” value (SARS-CoV2 viruses) is listed as 7.9 µg/mL (≈ 21.4 µM), the “IC50, antiviral action against Respiratory Syncytal Virus (RSV)” value [1] is listed as 10 µg/mL (≈ 27.1 µM) and the “IC50, antiviral action against influenza” value (influenza) is listed as 0.17 µg/mL (≈ 0.461 µM). The “IC50, antiviral action against Hepatitis” value (Hepatitis) was 1.68 µg/mL (≈ 4.56 µM), the “IC50, antiviral action against Herpes simplex virus” value (Herpes simplex virus) was 11.05 µg/mL (≈ 30 µM) and the “secretion of TNF-α and IL-6” value [2] was “significantly reduces”. For the same molecule, the “symptoms associated with inflammation in rheumatoid arthritis” value (rheumatoid arthritis) was “can reduce symptoms associated with inflammation” and the half-life [3] was “about 8 hours”.
